Drawing on US8809314B1, “Cephalosporin compound” (Cubist Pharmaceuticals, Inc., priority 2012, dated 2014), this text covers MIC90 and MIC for 5 compounds.

Format in all cases: cell-based
Test [1] concerns Pseudomonas aeruginosa (n = 100). Nature of the test: MIC90, expanded MIC panel (Table 4). The following applies: 100 Pa strains. The protocol: II. […] MIC90 values were defined as the concentration required to inhibit growth of 90% of the strains tested. • C. SAR was performed using the following isolates: Sa399 (ATCC43300, MRSA), Sa1721 (NARSA NRS384, MRSA USA 300), Pa44 (ATCC27853), and 4 clinical isolates (Pa2241, Pa2086 (mucoid strain), Pa2694 and Pa2698). • D. The in vitro antibacterial activity of the compound of formula (I) was further evaluated in an expanded MRSA and Pa MIC panel (see Table 4 and FIG. 6).

Another test deals with Sa399 (MRSA). Kind of test: MIC, broth microdilution (Example 3), Table 1. The following applies: Staphylococcus aureus, CAMHB, final 2% NaCl. The protocol:
(§1) To prepare for MIC testing, individual colonies were isolated by streaking frozen glycerol material containing Staphylococcus or Pseudomonas spp. onto rich, non-selective, tryptic soy agar containing 5% sheep's blood (TSAB), and incubated at 37° C. for 18-24 hrs.
(§2) On the day of testing, primary cultures were started by scraping off 5-10 colonies from the TSAB plates. The material was suspended in ˜5 mL of cation adjusted Mueller Hinton Broth (CAMHB) in 14 mL culture tubes and incubated at 37° C. with aeration (200 rpm) for ˜2 hrs until the OD600 was ≧0.1.
(§3) Inoculum cultures were prepared by standardizing the primary cultures to OD600=0.1 and then adding 20 μL of the adjusted primary culture per 1 mL CAMHB for Pseudomonas and CAMHB plus 4% NaCl for MRSA so that the final inoculum density was ˜10^5 colony forming units per milliliter. Diluted inoculum cultures were used to inoculate 50 μL per well in 96 well broth microdilution assay plates. 50 μL of CAMHB that contained compound concentrations ranging from 64-0.06 μg/mL in two-fold dilutions was also added to the broth microdilution assay plates for a final volume 100 μL per well, therefore final culture OD600 was approximately 0.001 and the final NaCl concentration for the MRSA strain was 2%.
(§4) Plates were incubated for 18-20 hours at 37° C. with aeration (200 rpm). Following incubation, growth was confirmed visually placing plates over a viewing apparatus (stand with a mirror underneath) and then OD600 was measured using a SpectraMax 340PC384 plate reader (Molecular Devices, Sunnyvale, Calif.). Growth was defined as turbidity that could be detected with the naked eye or achieving minimum OD600 of 0.1. MIC values were defined as the lowest concentration producing no visible turbidity.

The subject of another test is Pa44 (WT Pa). Nature of the test: MIC, broth microdilution (Example 3), Table 1. To be noted: Pseudomonas aeruginosa, CAMHB. The method, then: as §1, §2, §3, §4
A general note: Dilution methods test growth across graded concentrations, often in twofold steps.

A word on the MIC90: it is an inhibitory concentration at the 90% level, which refers to growth in some studies and to a panel of isolates in others. A lower MIC90 goes with greater potency. Usually MIC stands for the lowest concentration that inhibits growth of the organism. Low values mean inhibition by little substance, high ones a need for much substance.

≈ marks a conversion by molar mass, not a printed value.

For `C[C@@H](O)[C@H]1C(=O)N2C(C(=O)O)=C(S[C@@H]3CN[C@H](C(=O)N(C)C)C3)[C@H](C)[C@H]12` [Meropenem], in test [1], the MIC90 turned out to be 4 µg/mL (≈ 10.4 µM).

`CCCc1ccc(C(=O)NCc2cc[n+](CC3=C(C(=O)[O-])N4C(=O)[C@@H](NC(=O)/C(=N\OC)c5nc(N)sc5Cl)[C@H]4SC3)cc2)cc1` [Compound 1-3]: the MIC was 8 to 16 µg/mL (≈ 11.7 to 23.4 µM) against Sa399 (MRSA) and > 16 µg/mL against Pa44 (WT Pa).

For the compound `CO/N=C(\C(=O)N[C@@H]1C(=O)N2C(C(=O)[O-])=C(C[n+]3ccc(CNC(=O)c4cccc(CCNC(=O)C(F)(F)F)c4)cc3)CS[C@H]12)c1nc(N)sc1Cl` [Compound 1-4], the figures for the MIC with Sa399 (MRSA) and against Pa44 (WT Pa) were 8 to 16 µg/mL (≈ 10.2 to 20.5 µM) and > 16 µg/mL, respectively.

As to `CO/N=C(\C(=O)N[C@@H]1C(=O)N2C(C(=O)[O-])=C(C[n+]3ccc(CN)cc3)CS[C@H]12)c1csc(N)n1` [Compound 1-1], the MIC is > 16 µg/mL in the test with Sa399 (MRSA) and ≤ 4 µg/mL in the test with Pa44 (WT Pa).

In the case of `CO/N=C(\C(=O)N[C@@H]1C(=O)N2C(C(=O)[O-])=C(C[n+]3cccc4c3CCC4)CS[C@H]12)c1csc(N)n1` [Cefpirome], the values for the minimum inhibitory concentration (MIC) against Sa399 (MRSA) and against Pa44 (WT Pa) were 8 to 16 µg/mL (≈ 15.5 to 31.1 µM) and ≤ 4 µg/mL, respectively.
